One substance from patent US12729381B2, “Methods and compositions for inactivating interleukin-2-inducible t-cell kinase (ITK)” (priority 2020, dated 2026) can be followed below.

The assay deals with GVHD and B-ALL-luc tumor cells. The assay is described as follows: Allo-HSCT GVHD/GVL model with donor T cells transduced with SLP76pTYR-pCherry virus. In kind it is in vivo, BALB/c mice. As to conditions: murine allo-HSCT major mismatch model. The procedure: GVHD and GVL studies: Recipient BALB/c mice (MHC haplotype d) as recipients were lethally irradiated with 800 cGy total in two split doses of 400cGy. Bone marrow cells were harvested from mouse legs, and total bone marrow cells were incubated with CD90.2 beads, using 100 ul of beads per mouse according to manufacturer protocols. NK cells were depleted and by DX5 beads, and CD122+ cells with anti PE beads. Recipient mice were injected intravenously with 10×10^6 T cell-depleted bone marrow (TCDBM) cells, with or without donor T cells, either 1×10^6 or 2×10^6 FACS-sorted CD8^+, CD4^+ T cells, or CD8^+ and CD4^+ cells mixed at a 1:1 ratio from WT or SLP76 Y145FKI mice. For GVL experiments, primary B cell acute lymphoblastic leukemia (B-ALL, syngeneic to BALB/c and allogeneic to C57BI/6) blasts were transduced with luciferase as described previously (Cheng et al., 2016), and 2×10^5 luciferase-expressing B-ALL-luc cells were used per recipient mouse unless otherwise specified. […] The bioluminescence data were analyzed and quantified with Living Image Software (Xenogen) and Igor Pro (Wave Metrics, Lake Oswego, OR). Recipient animals were evaluated for clinical score 2-3 times per week by a scoring system that sums changes in 6 clinical parameters: (1) weight loss, (2) posture, (3) activity, (4) fur texture, (5) diarrhea and (6) skin integrity (Cooke et al., 1996). […]

Non-standard residues stand in square brackets, D forms with d. No end group written: not given here. *: point of attachment. FITC = O=C1OC2(c3ccc(O)cc3Oc3cc(O)ccc32)c2ccc(NC(=S)*)cc21; pY = N[C@@H](Cc1ccc(OP(=O)(O)O)cc1)C(=O)O

In the case of “FITC Dye ^132NEEEEAPVEDDADpYEPPPSNDEEA^155-TAT ({FITC}-NEEEEAPVEDDAD[pY]EPPPSNDEEAGRKKRRQRRRPQ) [SLP76pTYR]”, the “GVHD and GVL outcome (summary statement)” value is on record as “tumor clearance without inducing GVHD”. Moreover, under “listed as SLP76145pTYR”, the “GVHD and GVL outcome (summary statement)” value is “significantly reduced GVHD pathophysiology but maintained GVL function”.
